Several values for one entry are separate records, joined by “and”; a condition that tells them apart may be missing. Equal entries are not always repeated.
Columns and labels:
[1] = test system: A549 cells; experiment: A549 proliferation (viability) assay, Cell Titer Fluor, 72 hours; assay type: cell-based; details: Homo sapiens
How it was run: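 A549 cells in RPMI 1640 with 10% dialyzed FBS were seeded at 1000 cells/well, grown 24 h, then exposed to compound (0.5% DMSO final) for 72 h at 37 °C, 5% CO2. Viability was read by Cell Titer Fluor fluorescence; EC50 from four-parameter logistic fit.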

[2] = biological target: T1, GLS1 (purified recombinant human GAC) (Homo sapiens, UniProt O94925); experiment: GLS1 enzymatic activity assay (dual-coupled, Amplex UltraRed/resorufin); assay type: biochemical
T1 sequence (O94925 55-598 isoform O94925-3 limits assumed): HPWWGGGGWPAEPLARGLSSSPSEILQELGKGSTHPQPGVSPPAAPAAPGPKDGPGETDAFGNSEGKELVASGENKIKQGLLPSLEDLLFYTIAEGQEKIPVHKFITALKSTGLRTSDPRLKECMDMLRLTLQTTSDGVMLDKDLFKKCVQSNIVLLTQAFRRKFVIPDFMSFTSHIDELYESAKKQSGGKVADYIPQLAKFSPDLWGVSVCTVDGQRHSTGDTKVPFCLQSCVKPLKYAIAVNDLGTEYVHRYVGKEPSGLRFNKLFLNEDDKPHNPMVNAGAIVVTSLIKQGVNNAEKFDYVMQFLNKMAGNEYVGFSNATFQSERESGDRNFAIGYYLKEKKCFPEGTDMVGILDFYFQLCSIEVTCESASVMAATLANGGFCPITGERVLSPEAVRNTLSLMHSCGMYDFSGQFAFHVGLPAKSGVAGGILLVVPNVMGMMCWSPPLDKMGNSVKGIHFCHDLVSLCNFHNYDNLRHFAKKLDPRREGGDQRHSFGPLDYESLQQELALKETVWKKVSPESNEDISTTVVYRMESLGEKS
How it was run: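 Recombinant human GAC (2 nM) preincubated with 50 mM potassium phosphate, then inhibitor (10 min each, RT); 1 mM glutamine, pH 7.4 Hepes buffer, 1% DMSO. Glutamate coupled via glutamate oxidase/HRP to resorufin (Ex 530/Em 590), kinetic or 20-min endpoint; IC50 by four-parameter logistic fit.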

EC50 [1] [nM]	IC50 [2]	Compound
500 to 5000	500 to 5000 nM and 100 to 500 nM	O=C(Nc1ccn(CCCCc2nnc(C(=O)NCc3ccccn3)s2)c(=O)n1)OCc1ccccc1 [Example 120, benzyl N-[2-oxo-1-(4-{5-[(pyridin-2-ylmethyl)carbamoyl]-1,3,4-thiadiazol-2-yl}butyl)-1,2-dihydropyrimidin-4-yl]carbamate]
> 5000	500 to 5000 nM	COCCNC(=O)c1nnc(CCCCn2ccc(NC(=O)OCc3ccccc3)nc2=O)s1 [Example 121, benzyl N-[1-(4-{5-[(2-methoxyethyl)carbamoyl]-1,3,4-thiadiazol-2-yl}butyl)-2-oxo-1,2-dihydropyrimidin-4-yl]carbamate]
100 to 500	100 to 500 nM	O=C(Nc1ccn(CCCCc2nnc(C(=O)NCc3ccccc3)s2)c(=O)n1)OCc1ccccc1 [Example 122, benzyl N-(1-{4-[5-(benzylcarbamoyl)-1,3,4-thiadiazol-2-yl]butyl}-2-oxo-1,2-dihydropyrimidin-4-yl)carbamate]
500 to 5000	100 to 500 nM	Cc1ccc(CNC(=O)c2cn(C[C@@H](F)CCn3ccc(NC(=O)Cc4ccccc4)c(F)c3=O)nn2)cn1 [Example 124, (S)-1-(2-fluoro-4-(3-fluoro-2-oxo-4-(2-phenylacetamido)pyridin-1(2H)-yl)butyl)-N-((6-methylpyridin-3-yl)methyl)-1H-1,2,3-triazole-4-carboxamide]
< 100	< 100 nM	O=C(Cc1ccccc1)Nc1ccn(CC[C@H](F)Cn2cc(C(=O)NCc3cc(C(F)(F)F)ccn3)nn2)c(=O)c1F [Example 125, (S)-1-(2-fluoro-4-(3-fluoro-2-oxo-4-(2-phenylacetamido)pyridin-1(2H)-yl)butyl)-N-((4-(trifluoromethyl)pyridin-2-yl)methyl)-1H-1,2,3-triazole-4-carboxamide]
100 to 500	< 100 nM	O=C(Cc1ccccc1)Nc1ccn(CC[C@H](F)Cn2cc(C(=O)NCc3cccc(C(F)(F)F)n3)nn2)c(=O)c1F [Example 126, (S)-1-(2-fluoro-4-(3-fluoro-2-oxo-4-(2-phenylacetamido)pyridin-1(2H)-yl)butyl)-N-((6-(trifluoromethyl)pyridin-2-yl)methyl)-1H-1,2,3-triazole-4-carboxamide]
< 100	< 100 nM	O=C(Cc1ccccc1)Nc1ccn(CC[C@H](F)Cn2cc(C(=O)NCc3cccc(OC(F)(F)F)c3)nn2)c(=O)c1F [Example 127]
> 5000	100 to 500 nM	CC(C)CNC(=O)Nc1nnc(CCCCn2ccc(NC(=O)CC3CCCC3)c(F)c2=O)s1 [Example 128, 2-cyclopentyl-N-(3-fluoro-1-(4-(5-(3-isobutylureido)-1,3,4-thiadiazol-2-yl)butyl)-2-oxo-1,2-dihydropyridin-4-yl)acetamide]
500 to 5000	< 100 nM	O=C(Cc1ccccc1)Nc1ccn(CCCCc2nnc(NC(=O)NCc3ccccc3)s2)c(=O)c1F [Example 129, N-(1-(4-(5-(3-benzylureido)-1,3,4-thiadiazol-2-yl)butyl)-3-fluoro-2-oxo-1,2-dihydropyridin-4-yl)-2-phenylacetamide]
500 to 5000	< 100 nM	O=C(CC1CCCC1)Nc1ccn(CCCCc2nnc(NC(=O)NCc3ccccc3)s2)c(=O)c1F [Example 130, N-(1-(4-(5-(3-benzylureido)-1,3,4-thiadiazol-2-yl)butyl)-3-fluoro-2-oxo-1,2-dihydropyridin-4-yl)-2-cyclopentylacetamide]
500 to 5000	< 100 nM	O=C(CC1CCCC1)Nc1ccn(CCCCc2nnc(NC(=O)NCc3ccccn3)s2)c(=O)c1F [Example 131, 2-cyclopentyl-N-(3-fluoro-2-oxo-1-(4-(5-(3-(pyridin-2-ylmethyl)ureido)-1,3,4-thiadiazol-2-yl)butyl)-1,2-dihydropyridin-4-yl)acetamide]
> 5000	100 to 500 nM	CNC(=O)Nc1nnc(CCCCn2ccc(NC(=O)CC3CCCC3)c(F)c2=O)s1 [Example 132, 2-cyclopentyl-N-(3-fluoro-1-(4-(5-(3-methylureido)-1,3,4-thiadiazol-2-yl)butyl)-2-oxo-1,2-dihydropyridin-4-yl)acetamide]
100 to 500	< 100 nM	O=C(CC1CCCC1)Nc1ccn(CCCCc2nnc(NC(=O)NCc3cccc(C(F)(F)F)c3)s2)c(=O)c1F [Example 133, 2-cyclopentyl-N-(3-fluoro-2-oxo-1-(4-(5-(3-(3-(trifluoromethyl)benzyl)ureido)-1,3,4-thiadiazol-2-yl)butyl)-1,2-dihydropyridin-4-yl)acetamide]
< 100	< 100 nM	O=C(Cc1ccccc1)Nc1ccn(CCC(F)Cn2cc(C(=O)NCc3cccc(OC(F)(F)F)c3)nn2)c(=O)c1 (centres unmarked) [Example 134, 1-{2-fluoro-4-[2-oxo-4-(2-phenylacetamido)-1,2-dihydropyridin-1-yl]butyl}-N-{[3-(trifluoromethoxy)phenyl]methyl}-1H-1,2,3-triazole-4-carboxamide]
500 to 5000	100 to 500 nM	Cc1ccc(CNC(=O)c2cn(CCCCn3ccc(NC(=O)OCc4ccccc4)cc3=O)nn2)cn1 [Example 135, benzyl N-{1-[4-(4-{[(6-methylpyridin-3-yl)methyl]carbamoyl}-1H-1,2,3-triazol-1-yl)butyl]-2-oxo-1,2-dihydropyridin-4-yl}carbamate]
> 5000	100 to 500 nM	NC(=O)CNC(=O)c1cn(CCCCn2ccc(NC(=O)Cc3cccc(OC(F)(F)F)c3)cc2=O)nn1 [Example 136, 2-({1-[4-(2-oxo-4-{2-[3-(trifluoromethoxy)phenyl]acetamido}-1,2-dihydropyridin-1-yl)butyl]-1H-1,2,3-triazol-4-yl}formamido)acetamide]
100 to 500	< 100 nM	CC(C)(C)OC(=O)Nc1ccn(CCCCn2cc(C(=O)NCc3cccc(C(F)(F)F)c3)nn2)c(=O)c1 [Example 139, tert-butyl N-(2-oxo-1-{4-[4-({[3-(trifluoromethyl)phenyl]methyl}carbamoyl)-1H-1,2,3-triazol-1-yl]butyl}-1,2-dihydropyridin-4-yl)carbamate]
< 100	< 100 nM	O=C(CC1CCCCC1)Nc1ccn(CCCCn2cc(C(=O)NCc3cccc(C(F)(F)F)c3)nn2)c(=O)c1 [Example 141, 1-{4-[4-(2-cyclohexylacetamido)-2-oxo-1,2-dihydropyridin-1-yl]butyl}-N-{[3-(trifluoromethyl)phenyl]methyl}-1H-1,2,3-triazole-4-carboxamide]
500 to 5000	100 to 500 nM	Cc1ccc(CNC(=O)c2cn(CCCCn3ccc(NC(=O)OC(C)(C)C)cc3=O)nn2)cn1 [Example 143, tert-butyl N-{1-[4-(4-{[(6-methylpyridin-3-yl)methyl]carbamoyl}-1H-1,2,3-triazol-1-yl)butyl]-2-oxo-1,2-dihydropyridin-4-yl}carbamate]
< 100	< 100 nM	O=C(Cc1ccccc1)Nc1ccn(CC(F)CCn2cc(C(=O)NCc3cccc(OC(F)(F)F)c3)nn2)c(=O)c1 (centres unmarked) [Example 144, 1-{3-fluoro-4-[2-oxo-4-(2-phenylacetamido)-1,2-dihydropyridin-1-yl]butyl}-N-{[3-(trifluoromethoxy)phenyl]methyl}-1H-1,2,3-triazole-4-carboxamide]
100 to 500	< 100 nM	Cc1ccc(CNC(=O)c2cn(CCCCn3ccc(NC(=O)CC4CCCCC4)cc3=O)nn2)cn1 [Example 145, 1-{4-[4-(2-cyclohexylacetamido)-2-oxo-1,2-dihydropyridin-1-yl]butyl}-N-[(6-methylpyridin-3-yl)methyl]-1H-1,2,3-triazole-4-carboxamide]
100 to 500	< 100 nM	O=C(CC1CCCCC1)Nc1ccn(CCCCn2cc(C(=O)NCc3ncccc3F)nn2)c(=O)c1 [Example 146, 1-{4-[4-(2-cyclohexylacetamido)-2-oxo-1,2-dihydropyridin-1-yl]butyl}-N-[(3-fluoropyridin-2-yl)methyl]-1H-1,2,3-triazole-4-carboxamide]
> 5000	100 to 500 nM	O=C(Cc1ccccc1)Nc1ccn(CCCCn2cc(C(=O)NCc3ncccc3F)nn2)c(=O)c1 [Example 147, N-[(3-fluoropyridin-2-yl)methyl]-1-{4-[2-oxo-4-(2-phenylacetamido)-1,2-dihydropyridin-1-yl]butyl}-1H-1,2,3-triazole-4-carboxamide]
500 to 5000	< 100 nM	Cc1ccc(CNC(=O)c2cn(CCC(F)Cn3ccc(NC(=O)Cc4ccccc4)cc3=O)nn2)cn1 (centres unmarked) [Example 148, 1-{3-fluoro-4-[2-oxo-4-(2-phenylacetamido)-1,2-dihydropyridin-1-yl]butyl}-N-[(6-methylpyridin-3-yl)methyl]-1H-1,2,3-triazole-4-carboxamide]
500 to 5000	100 to 500 nM	O=C(Cc1ccccc1)Nc1ccn(CC(F)CCn2cc(C(=O)NCc3ncccc3F)nn2)c(=O)c1 (centres unmarked) [Example 149, 1-{3-fluoro-4-[2-oxo-4-(2-phenylacetamido)-1,2-dihydropyridin-1-yl]butyl}-N-[(3-fluoropyridin-2-yl)methyl]-1H-1,2,3-triazole-4-carboxamide]
